Data from patent US20250154109A1, “SODIUM CHANNEL BLOCKING COMPOUNDS, DERIVATIVES THEREOF, AND METHODS OF THEIR USE” (LATIGO BIOTHERAPEUTICS, INC, priority 2022, published 2025).
pIC50: −log10 of the molar value. Like-named read-outs stand apart in the source and are kept apart here.

Biological target: human Nav1.8 (Homo sapiens, UniProt Q9Y5Y9)
Assay: SyncroPatch384PE assay (automated patch clamp)
Type: cell-based
Conditions: human Nav1.8/b3 CHO cells
[1] = inactivated state block (P2 measurement), read-out: P2 IC50
[2] = resting state block (P1 measurement), read-out: P1 IC50

Sequence of human Nav1.8 (Q9Y5Y9 whole entry): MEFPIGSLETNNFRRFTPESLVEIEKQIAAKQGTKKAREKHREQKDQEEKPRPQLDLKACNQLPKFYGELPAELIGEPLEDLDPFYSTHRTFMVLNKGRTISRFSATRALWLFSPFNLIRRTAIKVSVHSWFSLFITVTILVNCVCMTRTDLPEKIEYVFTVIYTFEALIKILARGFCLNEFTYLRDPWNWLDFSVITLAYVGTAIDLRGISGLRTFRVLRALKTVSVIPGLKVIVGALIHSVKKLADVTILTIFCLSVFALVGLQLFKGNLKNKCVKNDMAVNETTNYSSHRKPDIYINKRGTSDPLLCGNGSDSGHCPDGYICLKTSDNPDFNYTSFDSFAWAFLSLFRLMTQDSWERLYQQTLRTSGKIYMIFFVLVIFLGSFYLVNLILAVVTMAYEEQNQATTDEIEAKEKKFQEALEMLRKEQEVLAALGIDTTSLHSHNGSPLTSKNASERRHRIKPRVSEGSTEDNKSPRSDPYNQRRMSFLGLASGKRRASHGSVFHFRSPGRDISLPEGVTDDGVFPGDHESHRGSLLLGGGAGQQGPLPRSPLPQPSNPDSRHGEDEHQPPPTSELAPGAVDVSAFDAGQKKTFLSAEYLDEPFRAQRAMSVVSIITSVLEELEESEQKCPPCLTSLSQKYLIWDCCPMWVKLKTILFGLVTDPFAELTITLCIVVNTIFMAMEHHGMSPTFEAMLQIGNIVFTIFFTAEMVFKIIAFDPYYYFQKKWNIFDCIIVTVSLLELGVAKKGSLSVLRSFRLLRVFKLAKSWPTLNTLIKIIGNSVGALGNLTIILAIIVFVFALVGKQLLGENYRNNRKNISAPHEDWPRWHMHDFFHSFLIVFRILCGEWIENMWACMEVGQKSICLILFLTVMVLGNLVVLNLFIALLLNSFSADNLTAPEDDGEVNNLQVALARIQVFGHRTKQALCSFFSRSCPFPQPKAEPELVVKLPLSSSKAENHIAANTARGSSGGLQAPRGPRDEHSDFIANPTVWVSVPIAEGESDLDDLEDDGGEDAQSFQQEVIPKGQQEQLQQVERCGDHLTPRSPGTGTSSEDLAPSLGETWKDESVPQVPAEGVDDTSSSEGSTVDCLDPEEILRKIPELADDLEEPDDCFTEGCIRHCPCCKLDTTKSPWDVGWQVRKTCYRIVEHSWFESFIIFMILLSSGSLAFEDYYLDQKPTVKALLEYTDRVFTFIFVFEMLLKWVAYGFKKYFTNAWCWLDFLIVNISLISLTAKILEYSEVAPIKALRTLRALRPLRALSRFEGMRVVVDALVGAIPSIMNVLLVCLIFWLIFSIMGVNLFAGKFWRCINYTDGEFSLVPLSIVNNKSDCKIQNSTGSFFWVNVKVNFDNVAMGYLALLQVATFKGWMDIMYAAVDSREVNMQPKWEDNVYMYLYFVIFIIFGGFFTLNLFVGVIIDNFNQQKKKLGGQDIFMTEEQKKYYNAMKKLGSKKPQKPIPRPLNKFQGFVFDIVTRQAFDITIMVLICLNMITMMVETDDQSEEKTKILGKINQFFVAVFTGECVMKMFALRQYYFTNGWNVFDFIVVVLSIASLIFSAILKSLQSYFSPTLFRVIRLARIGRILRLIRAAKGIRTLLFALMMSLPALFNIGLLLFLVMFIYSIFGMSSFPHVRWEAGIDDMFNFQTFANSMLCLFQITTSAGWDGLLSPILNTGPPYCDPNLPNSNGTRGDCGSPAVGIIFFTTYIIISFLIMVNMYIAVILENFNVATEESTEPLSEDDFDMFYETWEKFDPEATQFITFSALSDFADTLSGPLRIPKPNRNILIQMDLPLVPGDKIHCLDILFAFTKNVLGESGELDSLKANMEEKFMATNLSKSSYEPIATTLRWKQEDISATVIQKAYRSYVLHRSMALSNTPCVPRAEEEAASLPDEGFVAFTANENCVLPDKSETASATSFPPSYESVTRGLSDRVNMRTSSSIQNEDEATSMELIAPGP

pIC50 [1]	pIC50 [2]	SMILES
≥ 8.30	≥ 8.30	Cc1c(C(F)(F)F)nnc(N2CCCC(F)(F)CC2)c1C(=O)Nc1cccc([S@@](C)(=O)=NC(=O)C(C)(C)N)c1 [Example 235, (R)-N-(3-(N-(2-amino-2-methylpropanoyl)-S-methylsulfonimidoyl)phenyl)-3-(4,4-difluoroazepan-1-yl)-5-methyl-6-(trifluoromethyl)pyridazine-4-carboxamide]
≥ 8.30	≥ 8.30	Cc1c(C(F)(F)F)cnc(N2CCCC(F)(F)CC2)c1C(=O)Nc1cccc([S@](C)(=N)=O)c1 [Example 164, (R)-2-(4,4-difluoroazepan-1-yl)-4-methyl-N-(3-(S-methylsulfonimidoyl)phenyl)-5-(trifluoromethyl)nicotinamide]
≥ 8.30	≥ 8.30	Cc1c(C(F)(F)F)cnc(N2CCCC(F)(F)CC2)c1C(=O)Nc1ccnc([S@@](C)(=N)=O)c1 (single isomer, unassigned) [Example 188]
≥ 8.30	≥ 8.30	Cc1c(Br)cnc(N2CCCC(F)(F)CC2)c1C(=O)Nc1cccc(S(C)(=N)=O)c1 (stereo not drawn) [Example 86, 5-bromo-2-(4,4-difluoroazepan-1-yl)-4-methyl-N-(3-(S-methylsulfonimidoyl)phenyl)nicotinamide]
7.00 to 7.30	7.00 to 7.30	CNCC(=O)N=[S@](C)(=O)c1cccc(NC(=O)c2c(N3CCCC(F)(F)CC3)nnc(-c3cnn(C)c3)c2C)c1 [Example 72, (R)-3-(4,4-difluoroazepan-1-yl)-5-methyl-6-(1-methyl-1H-pyrazol-4-yl)-N-(3-(S-methyl-N-(methylglycyl)sulfonimidoyl)phenyl)pyridazine-4-carboxamide]
≥ 8.30	≥ 8.30	CNCC(=O)N=[S@](C)(=O)c1cccc(NC(=O)c2cc(Cl)c(C(F)(F)F)cc2N2CCCC(F)(F)CC2)c1 [Example 228, (R)-5-chloro-2-(4,4-difluoroazepan-1-yl)-N-(3-(S-methyl-N-(methylglycyl)sulfonimidoyl)phenyl)-4-(trifluoromethyl)benzamide]
≥ 8.30	≥ 8.30	Cc1nc(N2CCCC(F)(F)CC2)c(C(=O)Nc2cccc(S(C)(=N)=O)c2)cc1C(F)(F)F (stereo not drawn) [Example 3, 2-(4,4-difluoroazepan-1-yl)-6-methyl-N-(3-(S-methylsulfonimidoyl)phenyl)-5-(trifluoromethyl)nicotinamide]
≥ 8.30	≥ 8.30	Cc1c(-c2ccccc2F)cnc(N2CCCC(F)(F)CC2)c1C(=O)Nc1cccc(S(C)(=N)=O)c1 (stereo not drawn) [Example 92, 2-(4,4-difluoroazepan-1-yl)-5-(2-fluorophenyl)-4-methyl-N-(3-(S-methylsulfonimidoyl)phenyl)nicotinamide]
≥ 8.30	≥ 8.30	Cc1ccc(-c2cnc(N3CCCC(F)(F)CC3)c(C(=O)Nc3cccc(S(C)(=N)=O)c3)c2C)cc1 (stereo not drawn) [Example 96, 2-(4,4-difluoroazepan-1-yl)-4-methyl-N-(3-(S-methylsulfonimidoyl)phenyl)-5-(p-tolyl)nicotinamide]
7.30 to 8.30	7.30 to 8.30	Cc1c(-c2cnn(C)c2)cnc(N2CCCC(F)(F)CC2)c1C(=O)Nc1cccc([S@@](C)(=O)=NCCN)c1 [Example 210, (R)-N-(3-(N-(2-aminoethyl)-S-methylsulfonimidoyl)phenyl)-2-(4,4-difluoroazepan-1-yl)-4-methyl-5-(1-methyl-1H-pyrazol-4-yl)nicotinamide 2,2,2-trifluoroacetate]
7.30 to 8.30	7.30 to 8.30	Cc1c(Cl)c(-c2cnn(C)c2)nc(N2CCCC(F)(F)CC2)c1C(=O)Nc1ccnc([S@](C)(=N)=O)c1 [Example 212, (R)-5-chloro-2-(4,4-difluoroazepan-1-yl)-4-methyl-6-(1-methyl-1H-pyrazol-4-yl)-N-(2-(S-methylsulfonimidoyl)pyridin-4-yl)nicotinamide]
7.30 to 8.30	7.30 to 8.30	Cc1ccc(-c2nnc(N3CCCC(F)(F)CC3)c(C(=O)Nc3cccc([S@](C)(=N)=O)c3)c2C)cc1 [Example 225, (R)-3-(4,4-difluoroazepan-1-yl)-5-methyl-N-(3-(S-methylsulfonimidoyl)phenyl)-6-(p-tolyl)pyridazine-4-carboxamide]
≥ 8.30	≥ 8.30	Cc1c(C(F)(F)F)nnc(N2CCCC(F)(F)CC2)c1C(=O)Nc1cccc([S@@](C)(=O)=NC(=O)CN2CC(F)(F)C2)c1 [Example 198, (R)-3-(4,4-difluoroazepan-1-yl)-N-(3-(N-(2-(3,3-difluoroazetidin-1-yl)acetyl)-S-methylsulfonimidoyl)phenyl)-5-methyl-6-(trifluoromethyl)pyridazine-4-carboxamide]
≥ 8.30	≥ 8.30	CC#Cc1cnc(N2CCCC(F)(F)CC2)c(C(=O)Nc2cccc([S@](C)(=N)=O)c2)c1C [Example 127, (R)-2-(4,4-difluoroazepan-1-yl)-4-methyl-N-(3-(S-methylsulfonimidoyl)phenyl)-5-(prop-1-yn-1-yl)nicotinamide]
≥ 8.30	≥ 8.30	Cc1c(C(=O)Nc2cccc([S@@](C)(=O)=NC(=O)CN)c2)c(N2CCCC(F)(F)CC2)nc(C(F)(F)F)c1-c1cnn(C)c1 [Example 184, (R)-2-(4,4-difluoroazepan-1-yl)-N-(3-(N-glycyl-S-methylsulfonimidoyl)phenyl)-4-methyl-5-(1-methyl-1H-pyrazol-4-yl)-6-(trifluoromethyl)nicotinamide]
≥ 8.30	≥ 8.30	CNCC(=O)N=[S@](C)(=O)c1cccc(NC(=O)c2c(N3CCCC(F)(F)CC3)ncc(-c3ccc(C#N)cc3)c2C)c1 [Example 50, (R)-5-(4-cyanophenyl)-2-(4,4-difluoroazepan-1-yl)-4-methyl-N-(3-(S-methyl-N-(methylglycyl)sulfonimidoyl)phenyl)nicotinamide]
≥ 8.30	≥ 8.30	C[S@@](=N)(=O)c1cccc(NC(=O)c2cc(Cl)c(C(F)(F)F)cc2N2CCCC(F)(F)CC2)c1 [Example 77, (R)-5-chloro-2-(4,4-difluoroazepan-1-yl)-N-(3-(S-methylsulfonimidoyl)phenyl)-4-(trifluoromethyl)benzamide]
7.30 to 8.30	7.30 to 8.30	CS(=N)(=O)c1cccc(NC(=O)c2ccc(CC3CC3)nc2N2CCC3(CC2)CC3)c1 (stereo not drawn) [Example 80, 6-(cyclopropylmethyl)-N-(3-(S-methylsulfonimidoyl)phenyl)-2-(6-azaspiro[2.5]octan-6-yl)nicotinamide]
≥ 8.30	≥ 8.30	Cc1c(C(F)(F)F)cnc(N2CCCC(F)(F)CC2)c1C(=O)Nc1cccc([S@@](C)(=O)=NC(=O)[C@H](C)O)c1 [Example 192, 2-(4,4-difluoroazepan-1-yl)-N-(3-((R)-N-((S)-2-hydroxypropanoyl)-S-methylsulfonimidoyl)phenyl)-4-methyl-5-(trifluoromethyl)nicotinamide]
7.30 to 8.30	7.30 to 8.30	C[S@@](=N)(=O)c1cccc(NC(=O)c2cc(Cl)c(C(F)(F)F)cc2N2CCO[C@H](C(F)(F)F)C2)c1 [Example 215, 5-chloro-N-(3-((R)—S-methylsulfonimidoyl)phenyl)-4-(trifluoromethyl)-2-((S)-2-(trifluoromethyl)morpholino)benzamide]
≥ 8.30	≥ 8.30	Cc1c(-c2cccc(F)c2)cnc(N2CCCC(F)(F)CC2)c1C(=O)Nc1cccc([S@](C)(=N)=O)c1 [Example 110, (R)-2-(4,4-difluoroazepan-1-yl)-5-(3-fluorophenyl)-4-methyl-N-(3-(S-methylsulfonimidoyl)phenyl)nicotinamide]
